Experimental data: US8273716B2, “Use of LHRH antagonists for intermittent treatments” (Spectrum Pharmaceuticals, Inc., priority 2008, dated 2012)

How the values were obtained:
[1] = system: study subjects; test: Treatment of study subjects with peroral daily doses according to intermittent administration schemes; format: in vivo, human; settings: same doses and administration schemes; 50-150 mg perorally daily as a single dose
Method: (§1) Study subjects are treated with compound (76) with the following doses according to the following administration schemes: • in a 3 month trial, 75 mg or 150 mg compound (76) administered perorally daily as a single dose on day 2-7 of the menstrual cycle • in a 3 months trial, 75 mg, 100 mg or 150 mg compound (76) administered perorally daily as a single dose on day 2-7 of the menstrual cycle followed by a 3 months treatment-free period • in a 6 months trial, 75 mg or 150 mg compound (76) administered perorally daily as a single dose • 50 mg or 150 mg per compound (76) administered daily as a single dose over 42 days (6 weeks)
as §1, with “(68)” for “(76)”
as §1, with “36” for “(76)”
as §1, with “37” for “(76)”
as §1, with “52” for “(76)”
as §1, with “144” for “(76)”, “weeks) […]” for “weeks)”

[2] = target: LHRH receptor (Homo sapiens, UniProt P30968); settings: Cho N et al., J. Med. Chem. 1998; cited from earlier work
Chain of LHRH receptor (P30968 whole entry): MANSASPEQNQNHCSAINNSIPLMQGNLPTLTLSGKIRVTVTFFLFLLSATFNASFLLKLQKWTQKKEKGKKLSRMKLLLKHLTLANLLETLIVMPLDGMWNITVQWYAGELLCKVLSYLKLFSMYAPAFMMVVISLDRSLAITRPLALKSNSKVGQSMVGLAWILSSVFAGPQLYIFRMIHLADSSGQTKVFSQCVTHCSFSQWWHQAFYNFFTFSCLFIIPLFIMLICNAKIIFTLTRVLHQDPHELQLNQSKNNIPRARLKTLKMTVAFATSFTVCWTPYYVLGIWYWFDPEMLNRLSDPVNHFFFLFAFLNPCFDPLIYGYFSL

[3] = in vivo; cited from earlier work

Structure (SMILES)	prevention of chemical (hormonal) castration [1]	receptor affinity [2]	bioavailability [3]
CCC(C)[C@H](NC(=O)Cc1ccccc1F)C(=O)N[C@]1(C(=O)N[C@H](C(=O)NCN2CCOCC2)C(C)CC)CCc2[nH]c3c(C(F)(F)F)cccc3c2C1 (stereo partly drawn) [Compound 36, (R)-3-{(S)-2-[2-(2-Fluoro-phenyl)-acetylamino]-3-methyl-pentanoylamino}-8-trifluoromethyl-2,3,4,9-tetrahydro-1H-carbazole-3-carboxylic acid {(S)-2-methyl-1-[(morpholin-4-ylmethyl)-carbamoyl]-butyl}-amide]	successfully prevented	–	–
CCC(C)[C@H](NC(=O)Cc1ccccc1F)C(=O)N[C@]1(C(=O)N[C@H](C(=S)NCN2CCOCC2)C(C)CC)CCc2[nH]c3c(C(F)(F)F)cccc3c2C1 (stereo partly drawn) [Compound 37, (R)-3-{(S)-2-[2-(2-Fluoro-phenyl)-acetylamino]-3-methyl-pentanoylamino}-8-trifluoromethyl-2,3,4,9-tetrahydro-1H-carbazole-3-carboxylic acid {(S)-2-methyl-1-[(morpholin-4-ylmethyl)-thiocarbamoyl]-butyl}-amide]	successfully prevented	–	–
CCC(C)[C@H](NC(=O)Cc1ccccc1F)C(=O)N[C@]1(C(=O)N[C@H](C(=S)NCC2CCOCC2)C(C)CC)CCc2[nH]c3c(C(F)(F)F)cccc3c2C1 (stereo partly drawn) [Compound 52, (R)-3-{(S)-2-[2-(2-Fluoro-phenyl)-acetylamino]-3-methyl-pentanoylamino}-8-trifluoromethyl-2,3,4,9-tetrahydro-1H-carbazole-3-carboxylic acid {(S)-2-methyl-1-[(tetrahydro-pyran-4-ylmethyl)-thiocarbamoyl]-butyl}-amide]	successfully prevented	–	–
CCC(C)[C@H](NC(=O)Cc1ccccc1F)C(=O)N[C@]1(C(=O)N[C@H](C(=O)NNc2ccccc2)C(C)CC)CCc2[nH]c3c(C(F)(F)F)cccc3c2C1 (stereo partly drawn) [Compound 144, (R)-3-{(S)-2-[2-(2-Fluoro-phenyl)-acetylamino]-3-methyl-pentanoylamino}-8-trifluoromethyl-2,3,4,9-tetrahydro-1H-carbazole-3-carboxylic acid [(S)-2-methyl-1-(N′-phenyl-hydrazinocarbonyl)-butyl]-amide]	successfully prevented	–	–
CC(C)OC(=O)c1cn(Cc2c(F)cccc2F)c2sc(-c3ccc(NC(=O)C(C)C)cc3)c(CN(C)Cc3ccccc3)c2c1=O [T-98475]	–	high	low
CCC(C)[C@H](NC(=O)Cc1ccccc1F)C(=O)N[C@]1(C(=O)N[C@H](C(N)=S)C(C)CC)CCc2[nH]c3c(Cl)cc(F)cc3c2C1 (some centres unmarked) [compound (68)]	successfully prevented	–	–
CCC(C)[C@H](NC(=O)Cc1ccccc1F)C(=O)N[C@]1(C(=O)N[C@H](C(N)=S)C(C)CC)CCc2[nH]c3c(C(F)(F)F)cccc3c2C1 (stereo partly drawn) [compound (76), (R)-3-{(S)-2-[2-(2-fluorophenyl)acetylamino]-3-methylpentanoylamino}-8-trifluoro-methyl-2,3,4,9-tetrahydro-1H-carbazole-3-carboxylic acid ((S)-2-methyl-1-thio-carbamoylbutyl)amide]	successfully prevented	–	–
